Test results reported in patent US5604231A, “Pharmaceutical compositions for prevention and treatment of ulcerative colitis” (priority 1995, dated 1997).

Legend:
[1] = in words; literature; cited from earlier work
[2] = target: T1, muscle-like nicotinic receptors (TE671/RD) (Homo sapiens, UniProt P02708+P07510+P11230+Q07001); assay: cell-based; settings: for Emax: TE671/RD, read-out: Muscle Effect (% nicotine)
T1 construct: these cells express muscle-like nicotinic receptors; endogenous in cells; host or cells: TE671/RD (human embryonal rhabdomyosarcoma)
T1 sequence (P02708 21-457): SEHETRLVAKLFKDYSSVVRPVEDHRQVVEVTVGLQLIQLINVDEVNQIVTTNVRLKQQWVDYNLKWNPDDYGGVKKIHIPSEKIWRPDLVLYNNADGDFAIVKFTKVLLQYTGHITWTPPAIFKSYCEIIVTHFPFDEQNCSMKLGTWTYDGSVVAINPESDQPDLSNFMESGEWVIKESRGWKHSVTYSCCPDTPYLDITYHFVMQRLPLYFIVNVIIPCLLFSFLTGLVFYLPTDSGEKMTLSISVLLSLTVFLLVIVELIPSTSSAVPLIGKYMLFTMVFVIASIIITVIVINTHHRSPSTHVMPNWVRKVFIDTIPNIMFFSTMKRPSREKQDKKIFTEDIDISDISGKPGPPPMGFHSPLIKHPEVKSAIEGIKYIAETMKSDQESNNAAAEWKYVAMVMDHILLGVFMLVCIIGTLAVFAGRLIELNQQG
T1 sequence (Q07001 22-517): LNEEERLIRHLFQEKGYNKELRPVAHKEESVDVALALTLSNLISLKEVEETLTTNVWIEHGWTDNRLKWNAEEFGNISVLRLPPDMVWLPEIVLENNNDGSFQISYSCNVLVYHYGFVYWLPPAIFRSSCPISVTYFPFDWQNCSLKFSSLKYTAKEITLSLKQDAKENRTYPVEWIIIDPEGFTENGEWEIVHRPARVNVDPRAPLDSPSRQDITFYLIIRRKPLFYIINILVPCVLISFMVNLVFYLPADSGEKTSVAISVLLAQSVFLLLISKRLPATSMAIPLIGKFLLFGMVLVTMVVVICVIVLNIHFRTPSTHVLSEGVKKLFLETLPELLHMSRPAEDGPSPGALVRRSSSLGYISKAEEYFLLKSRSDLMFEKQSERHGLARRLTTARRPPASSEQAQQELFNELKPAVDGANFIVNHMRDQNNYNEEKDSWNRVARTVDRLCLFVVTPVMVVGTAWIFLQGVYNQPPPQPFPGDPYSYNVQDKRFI
T1 sequence (P07510 23-517): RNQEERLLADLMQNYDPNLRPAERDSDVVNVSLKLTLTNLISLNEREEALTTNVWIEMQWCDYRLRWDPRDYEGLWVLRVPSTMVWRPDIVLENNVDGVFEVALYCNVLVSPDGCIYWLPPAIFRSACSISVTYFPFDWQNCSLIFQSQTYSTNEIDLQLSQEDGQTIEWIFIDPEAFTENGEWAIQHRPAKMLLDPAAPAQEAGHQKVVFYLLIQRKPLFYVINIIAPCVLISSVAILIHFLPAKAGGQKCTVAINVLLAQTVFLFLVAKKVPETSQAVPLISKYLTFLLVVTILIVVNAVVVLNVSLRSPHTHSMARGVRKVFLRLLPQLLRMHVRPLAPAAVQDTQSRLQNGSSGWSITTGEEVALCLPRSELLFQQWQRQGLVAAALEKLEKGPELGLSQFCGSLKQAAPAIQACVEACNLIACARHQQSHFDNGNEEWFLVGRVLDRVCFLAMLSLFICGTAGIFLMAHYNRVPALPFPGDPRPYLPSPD
T1 sequence (P11230 24-501): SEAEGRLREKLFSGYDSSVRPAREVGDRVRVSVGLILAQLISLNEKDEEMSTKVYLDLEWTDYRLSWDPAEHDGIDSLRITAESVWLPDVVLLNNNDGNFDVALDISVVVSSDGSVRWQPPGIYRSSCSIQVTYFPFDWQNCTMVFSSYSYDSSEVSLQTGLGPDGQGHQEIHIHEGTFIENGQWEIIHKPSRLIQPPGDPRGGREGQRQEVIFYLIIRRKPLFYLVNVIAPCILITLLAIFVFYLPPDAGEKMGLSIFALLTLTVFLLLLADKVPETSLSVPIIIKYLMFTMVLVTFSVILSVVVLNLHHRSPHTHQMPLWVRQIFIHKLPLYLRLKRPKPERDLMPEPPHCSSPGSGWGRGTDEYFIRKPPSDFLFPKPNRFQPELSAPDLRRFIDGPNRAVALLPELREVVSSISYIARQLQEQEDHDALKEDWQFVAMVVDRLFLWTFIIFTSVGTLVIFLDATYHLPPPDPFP

nicotinic receptors = assay: Determination of binding of compounds to relevant receptor sites (inhibition of L-[3H]nicotine binding, brain membrane preparations); set-up: species or system rat (Sprague-Dawley)
Procedure: Rats (Sprague-Dawley) were maintained on a 12 hour light/dark cycle and were allowed free access to water and food supplied by Wayne Lab Blox, Madison, Wis. Animals used in the present studies weighed 200 to 250 g. Brain membrane preparations were obtained from brain tissue of either males or females.
Rats were killed by decapitation following anesthesia with 70% CO2. Brains were removed and placed on an ice-cold platform. […] The resulting homogenate was centrifuged at 18,000×g for 20 min. and the resulting pellet was resuspended in 20 volumes of water. After 60 min. incubation at 4° C., a new pellet was collected by centrifugation at 18,000×g for 20 min. After resuspension in 10 volumes of buffer, a new final pellet was again collected by centrifugation at 18,000×g for 20 min. Prior to each centrifugation step, the suspension was incubated at 37 ° C. for 5 min. to promote hydrolysis of endogenous acetylcholine. The final pellet was overlayered with buffer and stored at -70 ° C. On the day of the assay, that pellet was thawed, resuspended in buffer and centrifuged at 18,000×g for 20 min. The pellet obtained was resuspended in buffer to a final concentration of approximately 5 mg protein/mi. […]

[3] = in words; some patients; cited from earlier work
[4] = in words; literature; cited from earlier work; remark: listed apart in the source
[5] = test system: IL-2; memory; neurotransmitter release in the CNS; settings: in words; literature; cited from earlier work

## CN1CCC[C@H]1c1cccnc1 [C-1, (S)-(-)-nicotine]
[1]
  treatment of various CNS disorders: positive effect towards the treatment of various CNS disorders

## CNCC/C=C/c1cncnc1 [Sample No. 2, (E)-N-methyl-4-(5-pyrimidinyl)-3-butene-1-amine]
[2]
  Emax: 4%

## COc1cncc(/C=C/CCN)c1 [Sample No. 3, (E)-4-[3-(5-methoxypyridin)yl]-3-butene-1-amine monofumarate]
[2]
  Emax: 0%

## CNCCC#Cc1cccnc1 [Sample No. 4, N-Methyl-4-(3-pyridinyl)-3-butyne-1-amine]
Nicotinic receptors
  Ki: 58 nM
[2]
  Emax: 7%

## CNCC/C=C/c1ccc(C)nc1 [Sample No. 6, (E)-N-methyl-4-[3-(6-methylpyridin)yl]-3-butene-1-amine]
[2]
  Emax: 2%

## CNCCCCc1cccnc1 [Sample No. 7, N-methyl-(3-pyridinyl)-butane-1-amine]
[2]
  Emax: 0%

## CNCC/C=C/c1cccnc1 [Sample No. 8, (E)-metanicotine]
[2]; te671/rd cells
  Muscle Effect (% nicotine): 15 % nicotine

## Nc1ccc(O)c(C(=O)O)c1 [mesalamine]
[3]
  effectiveness in treatment of acute UC: effective to some degree in some patients

## CN1CCCC1c1cccnc1 (centres unmarked) [nicotine]
[4]
  rectal blood flow: Positive effects
[5]
  effects upon memory: positive effects upon memory
  neurotransmitter release in the CNS: induce neurotransmitter release in the CNS
  production of IL-2: inhibit the production of IL-2

## O=C(O)c1cc(/N=N/c2ccc(S(=O)(=O)Nc3ccccn3)cc2)ccc1O [sulfasalazine]
[3]
  effectiveness in treatment of acute UC: effective to some degree in some patients
